Results published in ChEMBL document CHEMBL1124170, “N2-phenyldeoxyguanosine: a novel selective inhibitor of herpes simplex thymidine kinase” (J Med Chem, 1988).

How the values were obtained:
[1] = biological target: T1, Thymidine kinase (Human herpesvirus 1 (strain SC16) (HHV-1) (Human herpes simplex virus1), UniProt P06479); assay: Inhibitory activity against Herpes simplex virus type-I specific thymidine kinase; parameters: species or system Human alphaherpesvirus 1 strain SC16
T1 sequence (P06479 whole entry): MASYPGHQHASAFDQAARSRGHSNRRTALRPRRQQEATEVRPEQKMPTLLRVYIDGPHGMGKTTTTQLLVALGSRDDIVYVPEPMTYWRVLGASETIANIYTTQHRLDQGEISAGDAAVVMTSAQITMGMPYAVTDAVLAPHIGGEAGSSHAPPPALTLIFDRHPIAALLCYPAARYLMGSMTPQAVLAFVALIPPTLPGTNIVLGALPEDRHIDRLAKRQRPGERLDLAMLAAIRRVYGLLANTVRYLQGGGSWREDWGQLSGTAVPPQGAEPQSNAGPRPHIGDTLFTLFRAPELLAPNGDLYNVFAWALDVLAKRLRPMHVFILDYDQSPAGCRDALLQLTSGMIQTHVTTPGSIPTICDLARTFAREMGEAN

[2] = tested on: Thymidine kinase (Human alphaherpesvirus 1); assay: Inhibitory activity against Herpes simplex virus type-I specific thymidine kinase; No inhibition detected at 1 mM concentration

Structure (SMILES) | EC50 [1] [µM] | EC50 [2]
CCc1cccc(Nc2nc3nc[nH]c3c(=O)[nH]2)c1 | 3 | 
CCCCc1ccc(NC2=NC(=O)C3N=CN([C@H]4C[C@H](O)[C@@H](COP(=O)(O)O)O4)C3=N2)cc1 (stereo not given in full) | 400 | 
CCCCc1ccc(Nc2nc3c(ncn3[C@H]3O[C@@H](CO)[C@H](O)[C@@H]3O)c(=O)[nH]2)cc1 | 75 | 
CCCCc1ccc(Nc2nc(N)c3ncn([C@H]4C[C@H](O)[C@@H](CO)O4)c3n2)cc1 |  | Not Active
CCCCc1ccc(Nc2nc3nc[nH]c3c(=O)[nH]2)cc1 | 50 | 
Cc1ccc(Nc2nc3c(ncn3C3O[C@@H](CO)[C@H](O)[C@@H]3O)c(=O)[nH]2)cc1 (stereo not given in full) | 30 | 
Cc1ccc(Nc2nc3nc[nH]c3c(=O)[nH]2)cc1 | 50 | 
CCCCc1ccc(Nc2nc3c(ncn3COCCO)c(=O)[nH]2)cc1 | 140 | 
O=C1N=C(Nc2ccccc2)N=C2C1N=CN2[C@H]1C[C@H](O)[C@@H](COP(=O)(O)O)O1 (stereo not given in full) | 3 | 
CCCCc1ccc(Nc2nc3c(ncn3[C@H]3C[C@H](O)[C@@H](CO)O3)c(=O)[nH]2)cc1 | 25 | 
